We go through 1 substance from US5358936A, “Anionic furanose derivatives, methods of making and using the same” (Gordon; Paul, priority 1991, dated 1994).

Series [1] deals with focal submucosal lesions. Description: Ethanol-induced gastric focal lesions (Example 33). It is filed as in vivo, rat. As to the method: At three hours after ethanol administration, this drug continued to suppress ethanol-induced focal lesions (-57 percent).
A suspension of 25 mg/kg sucralfate+25 mg/kg Compound III:Al in combination was given as a pretreatment administration to another group in the same study. The combination produced an unanticipated augmentation of therapeutic effect against ethanol-induced focal submucosal lesions (-90 percent) at three hours post-ethanol administration. The same interactive phenomenon was also observed when Compound III was used, rather than Compound III:Al.

The subject of series [2] is gastric mucosal ulcers. Description: Healing of established gastric ulcers induced by acetic acid (Example 34). Type of series: in vivo, rat. From the text: To evaluate drug effects on peptic ulcer healing, gastric mucosal ulcers were produced in rats, after a two day fast, by a modification of the method of Konturek et al., Am. J. Med., Vol. 86, 6A, 32 (1989). Briefly, to produce a mucosal ulcer, Konturek et al. applied 100 percent acetic acid for twenty seconds to the stomach serosa through a small cylindrical mold, 4.2 mm in diameter. The aim here was to make ulceration more severe than was achieved by the Konturek group so that spontaneous healing would not be as pronounced as they found in the controls, over an experimental period of seven days.
All drugs studied were suspended in 0.25 percent (by weight) aqueous methylcellulose solution as the vehicle or diluent, which also served as the placebo given to the controls. Treatments were given once daily by oral gavage, in one milliliter of vehicle. The treatment groups were: Control; Sucralfate at 200 mg/kg; and Compound III:Al at 200 mg/kg.
At the end of the treatment period, stomachs were removed, ulcer diameters were measured, and determination was made of the presence or absence of perforation.
A second study was carried out in which ulcer evolution was permitted to take place over five additional days, in the absence and presence of treatment with Sucralfate.
A third study was begun one day following the start of study 2, in which ulcer evolution was allowed to take place over five additional days, in the absence and presence of treatment with Compound III:Al.
In another study, after ulcer induction as above, a different dosage protocol was employed at 24 hours to evaluate the interaction of Compound III and orally administered sucralfate on ulcer healing. […] Here, daily drug doses of the following were used: (a) sucralfate at 200 mg/kg, alone and (b) in combination with 80 mg/kg Compound III given by mouth at -45 minutes, and, in a third group, (c) in combination with 10 mg/kg Compound III given IV also at -45 minutes. In this interaction study, drug treatment was continued for three and not five days, as was the case for the above studies, followed by passage of two additional non-treatment days before sacrifice of animals for evaluation of stomach ulcer area and perforation.
Data from all ulcer-healing studies employing a drug dosage of 200 mg/kg and the same ulcerogenesis protocol were pooled as to the frequency of gastric perforation observed on day five, not shown separately, with the day six perforation data shown above.

A short description of series [3]: Solubility / dissolution in acid, water and 20 percent methanol. It is filed as physicochemical. The settings on record: pH 1.2; Compound III:Al 2.5 mg/ml.
The test system of series [4] is focal submucosal lesions. Description: Ethanol-induced gastric focal lesions (Example 33). Type of series: in vivo, rat. The settings on record: one hour post-ethanol, 50 mg/kg.
The conditions of series [5]: Physicians' Desk Reference (1990); cited from earlier work.
Series [6] is described as follows: Dissolution and buffering of suspensions, HCl titration (Example 16).
Excerpt: Note that the term "apparent pK" in this context is meant to encompass the maximization of buffering that come both from solid-state dissolution and its titration as solute.
Setting [7] is: three hours post-ethanol, 50 mg/kg, combination 25 + 25 mg/kg.

“And” between values parts separate entries of the source, which are not always exact repeats. Equal values may be shown once. “Also recorded” adds a separate entry of the source.

Take “sucrose octakis-(hydrogen sulfate) aluminum complex [sucralfate, reference compound]”: in series [1] (pretreatment 50 mg/kg one hour before ethanol), the “effect on ethanol-produced gastric pathology, in words” value was “inhibited all focal submucosal lesions; also recorded: All large vessel vasodilation provoked by ethanol was also inhibited one hour after ethanol treatment; also recorded: at three hours all therapeutic effects of sucralfate on ethanol-produced gastric pathology were absent”. Moreover, the “change in focal lesions versus control” value is listed as “+6%” in series [1] (setting [7]) and -100% in series [4]. In addition, the “change in focal lesions versus control, study employing Compound III” value in series [1] (setting [7]) was “+44%”. In series [1] (three hours post-ethanol, 50 mg/kg, combination 25 + 25 mg/kg, control 2.25 ± 0.98), the “Focal Lesions per Stomach, study employing Compound III” value is reported as 3.25 + 1.01 per Stomach. Also, the “Focal Lesions per Stomach” value worked out at 5.24 ± 1.49 per Stomach in series [1] (three hours post-ethanol, 50 mg/kg, combination 25 + 25 mg/kg, n = 17, control 4.94 ± 1.41) and 0.00 per Stomach in series [4] (n = 6, control 4.17 ± 1.58, p<0.05). Besides, the “DRUG EFFECT on mean ulcer score” value in series [2] (Day 6, 200 mg/kg oral) is on record as -33%. In series [2] (Day 6, 200 mg/kg oral once daily, * = perforation, 200 mg/kg), the “Established ulcer score, individual animal (area in cm^2, + 2.0 for perforation)” value was 2.96 and 5.75 and 3.0 and 1.0 and 0.96 and 3.5 and 1.5 and 0.1 and 1.05 and 0.4. Further, the “MEAN SCORE, established ulcers” value in series [2] (Day 6, 200 mg/kg oral, controls 3.03 ± 0.73 (sucralfate study, not significant), 4.12 ± 0.67 (Compound III:Al study, P < 0.001)) is reported as 2.02 ± 0.55. Also, the “DRUG EFFECT on mean ulcer area” value in series [2] (day six, 200 mg/kg oral) is listed as -43%. Moreover, the “Established ulcer area, MEAN” value in series [2] (day six, 200 mg/kg oral, controls 2.14 ± 0.43 (sucralfate, P < 0.1), 2.32 ± 0.61 (Compound III:Al, P < 0.05)) is 1.22 ± 0.31 CM^2. For the same substance, the “Established ulcer area, MEAN (comparative treatments)” value in series [2] (day six, three days treatment, sucralfate 200 mg/kg alone) turned out to be 2.11 ± 0.41 CM^2. Further, in series [2] (pooled, 200 mg/kg, control 50, Compound III:Al P < 0.001 vs control and vs sucralfate), the “Perforation As Percent” value is on record as 38%. In addition, the “Perforation Frequency” value in series [2] (pooled, 200 mg/kg, days five and six, control 26/52) is listed as 12/32. In addition, the “dissolution of suspension in acid” value in series [3] is “complete dissolution”. Also, the “absorption from the gastrointestinal tract” value in series [5] is recorded as “only minimally absorbed”. For the same substance, the “HCl needed to lower pH of suspension to below pH 2.00” value in series [6] (50 mg in 20 ml distilled water, initial pH 4.44 (aluminum trihydroxide), 4.91 (sucralfate), 4.23 (Compound III:Al), water alone 0.30) was 0.4 meq. For the same substance, the “buffering action, in words” value in series [6] (HCl titration) was “only a minor buffering action between pH 1.73 and 1.47”. Besides, in series [6] (sucralfate = 1), the “Relative Buffering Power between pH 4.5 and 2.0” value stood at 1.
